Reference: patent US20080311594A1, “USE OF FIBROBLAST GROWTH FACTOR 7 (Fgf7) AND OF THE RECEPTOR Fgfr2b AS BIOMARKERS” (priority 2007, published 2008)
Like-named read-outs stand apart in the source and are kept apart here.

Tests used:
[1] = test system: Fgf7; assay: Gene expression of Fgf7 in MXT tumours, GeneChip (Affymetrix) analysis; type: in vivo, mice; conditions: Example 1, non-responders (>100 mg) vs responders (<100 mg)
Procedure: (§1) For further gene expression studies, the RNA of selected tumours was isolated and analysed further by GeneChip analyses and real-time PCR:
(§2) The five largest tumours from the vehicle control group were selected.
(§3) A limit was set in the ovariectomized group and that treated with 11β-(4-acetyl-phenyl)-17β-hydroxy-17α-(1,1,2,2,2-pentafluoroethyl)estra-4,9-dien-3-one: tumours having a weight higher than 100 mg were assessed as non-responders, and tumours with a weight less than 100 mg were classified as responders.

[2] = target: T1, progesterone receptor (Homo sapiens, UniProt P06401); conditions: Fuhrmann et al., J. Med. Chem. 2000; cited from earlier work
T1 sequence (P06401 1-933): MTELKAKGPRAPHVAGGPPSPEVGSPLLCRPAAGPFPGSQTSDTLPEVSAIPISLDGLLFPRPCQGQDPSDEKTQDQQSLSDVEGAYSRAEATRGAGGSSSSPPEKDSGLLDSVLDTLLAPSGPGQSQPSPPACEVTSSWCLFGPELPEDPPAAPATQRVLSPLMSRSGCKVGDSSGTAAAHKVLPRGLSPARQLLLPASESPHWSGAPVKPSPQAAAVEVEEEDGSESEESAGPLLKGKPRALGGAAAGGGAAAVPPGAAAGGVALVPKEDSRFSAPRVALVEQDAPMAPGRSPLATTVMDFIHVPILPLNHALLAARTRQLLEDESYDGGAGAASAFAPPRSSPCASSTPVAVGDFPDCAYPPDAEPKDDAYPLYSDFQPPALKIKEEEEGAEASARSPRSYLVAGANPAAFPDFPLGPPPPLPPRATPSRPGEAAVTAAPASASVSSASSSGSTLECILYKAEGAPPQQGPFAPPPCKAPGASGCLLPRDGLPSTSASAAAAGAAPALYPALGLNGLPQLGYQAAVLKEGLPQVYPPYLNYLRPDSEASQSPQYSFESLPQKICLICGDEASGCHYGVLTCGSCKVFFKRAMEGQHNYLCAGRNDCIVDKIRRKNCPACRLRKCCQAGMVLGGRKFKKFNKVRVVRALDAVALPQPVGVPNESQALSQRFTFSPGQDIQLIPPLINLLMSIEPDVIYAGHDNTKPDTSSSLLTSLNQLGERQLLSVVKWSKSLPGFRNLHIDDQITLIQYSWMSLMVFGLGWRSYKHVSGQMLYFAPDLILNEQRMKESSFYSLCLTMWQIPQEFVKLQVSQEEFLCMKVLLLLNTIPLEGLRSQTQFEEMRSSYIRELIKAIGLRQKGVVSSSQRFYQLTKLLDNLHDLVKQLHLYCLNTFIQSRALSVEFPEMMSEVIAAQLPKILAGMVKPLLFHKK

[3] = test system: Fgfr2; assay: Relative expression of Fgfr2 versus 18S rRNA in model cell lines; type: cell-based, human
Source text: Relative Expression of Fgfr2 Versus 18S rRNA in 6 Model Cell Lines […]
Expression of the receptor for fibroblast growth factor 7 (Fgf7) was not regulated in the sensitive T47-D cells on treatment with ZK-PRA (1.1 times higher on treatment with ZK-PRA). Expression in the ZK-PRA-resistant T47-D without treatment was twice as high as in the sensitive T47-D cells and declined somewhat with ZK-PRA treatment to 1.3 times the value of the untreated sensitive T47-D cells. Expression in all other cells was considerably less both in normal medium and on treatment with ZK-PRA: […]

[4] = test system: Fgfr2; assay: Gene expression of Fgfr2 in MXT tumours, real-time PCR; type: in vivo, mice; conditions: for Real-time regulation ZK-PRA NR versus vehicle control / Real-time regulation ZK-PRA R versus vehicle control: Fgfr2; for Real-time regulation ZK-PRA NR versus vehicle control: non-responder tumours; for Real-time regulation ZK-PRA R versus vehicle control: responder tumours
Procedure: as §1, §2, §3
(§4) Exactly as in Test 1, the limit for response to the therapy and the non-response was set here at a tumour weight of 100 mg. The five largest tumours were selected from the control group. The RNA was isolated from the tumours, and gene expression of the biomarker candidates was determined.

[5] = test system: MXT-M3 tumour; assay: MXT-M3 tumour model in mice, tumour weight at end of test; type: in vivo
Source text: For the test, an MXT-M3 tumour which was no longer strictly hormone-dependent was transplanted into mice.
The MXT(+) tumour model was induced in C57BLxDBA2F1 mice by intraperitoneal administration of a urethane solution. The developing mammary tumour could be transplanted further to mice with the same genetic background (syngeneic) and is still an established model. The MXT(+) model is distinguished very particularly by the fact that the tumours express both ER and PR in physiological concentrations. Although there are other hormone receptor-positive tumour models, frequently ER and PR are not functional therein and show no translocation from the cytoplasm into the nucleus after stimulation. Nor is it possible to show growth inhibition by hormone ablation here. These models are unsuitable for investigating antihormonal substances (Watson, Medina et al. 1977).
At the end of the test, the animals were sacrificed and the tumours were removed, and then the weight of the tumours was determined. The variation in the tumour weights is high in each group. The average tumour weights in the vehicle control group (427 mg) was 2.8 times higher than in the ovariectomized group (155 mg) and 2.2 times as high as in the group treated with 11β-(4-acetylphenyl)-17β-hydroxy-17α-(1,1,2,2,2-pentafluoroethyl)estra-4,9-dien-3-one (192 mg).
as §3
It was possible in the investigation of the tumour RNA of the in vivo experiment from Example 1 to identify biomarker candidates. To confirm these potential candidates, an independent animal experiment was carried out with the same study design, increasing the number of animals from ten to 20 per group. At the end of the test, the tumours were removed, the tumour weight was determined and the tumours were stored at −80° C. until RNA was isolated. The results are depicted in FIG. 2/5.
as §4

[6] = test system: T47-D cells; assay: Proliferation assay of T47-D cells with and without FGF7; type: cell-based, human; conditions: for growth (of maximum control): 10^−11 mol/l; for inhibition at 10 µM: 10^−5 mol/l
Procedure: The influence of FGF7 on the activity of 11β-(4-acetylphenyl)-17β-hydroxy-17α-(1,1,2,2,2-pentafluoroethyl)estra-4,9-dien-3-one was investigated on T47-D cells. […] 50 ng/ml FGF7 were added to the medium, and the activity of ZK-PRA was determined in a proliferation assay.
It was thus possible to inhibit growth by 58% through withdrawal of E2.
T47-D cells proliferate only in the presence of E2, so that E2 ablation serves as check of maximum growth inhibition. In the proliferation test without Fgf7 it was thus possible to achieve a maximum inhibition of almost 60%. On addition of Fgf7 to the medium, the effect was substantially smaller and the inhibition was now only 29%. Fgf7 thus downregulates not only ER and PR, so that the target for antiestrogens and antiprogestagens is lost, but additionally acts per se as growth factor, so that antihormonal effects or ablation of hormones are compensated. Fgf7 is a potent biomarker candidate. […] This was confirmed in an independent, second in vivo experiment. Fgf7 is a unidirectional, paracrine factor which has a local effect, but is nevertheless secreted, so that investigation is required of whether an elevated Fgf7 serum level possibly correlates with a non-response to treatment with 11β-(4-acetylphenyl)-17β-hydroxy-17α-(1,1,2,2,2-pentafluoroethyl)-estra-4,9-dien-3-one.

[7] = test system: Fgf7; assay: Gene expression of Fgf7 in MXT tumours, real-time PCR; type: in vivo, mice; conditions: for Real-time regulation ZK-PRA NR versus vehicle control / Real-time regulation ZK-PRA R versus vehicle control: Fgf7; for Real-time regulation ZK-PRA NR versus vehicle control: non-responder tumours; for Real-time regulation ZK-PRA R versus vehicle control: responder tumours
Procedure: as §1, §2, §3, §4

[8] = test system: MCF-7 cells; conditions: recombinant Fgf7 added to the culture medium, Chang et al. 2006; cited from earlier work
[9] = test system: progesterone receptor (PR-A, PR-B) in T47-D cells; assay: Western blot analysis of the progesterone receptor under the influence of FGF7; type: cell-based, human; conditions: Fgf7 20 and 50 ng/ml, 24 h and 72 h
Procedure: It is reported in the literature that FGF7 downregulates both ER and PR. In order to detect this effect, cells were incubated in medium with various amounts of FGF7 for 24 h and 72 h, and then the PR content was determined.

CC(=O)c1ccc([C@H]2C[C@@]3(C)[C@@H](CC[C@@]3(O)C(F)(F)C(F)(F)F)[C@@H]3CCC4=CC(=O)CCC4=C32)cc1 [ZK-PRA, 11β-(4-acetylphenyl)-17β-hydroxy-17α-(1,1,2,2,2-pentafluoroethyl)estra-4,9-dien-3-one]
Affymetrix regulation ZK-PRA NR versus ZK-PRA R [1]: 2.30 (±0.33)
antiprogestational activity [2]: high antiprogestational activity
Fgfr2 mRNA on treatment compared with untreated T47-D cells ([3]; BT-474 cells): 37 times lower
Fgfr2 mRNA on treatment compared with untreated sensitive T47-D cells ([3]; MCF-7 cells): 153 times lower
Fgfr2 expression on treatment relative to untreated sensitive T47-D cells ([3]; ZK-PRA-resistant T47-D cells): 1.3 times
Fgfr2 expression on treatment compared with T47-D under normal conditions ([3]; ZR75-1 cells): 9.4 times lower
Fgfr2 expression on treatment relative to untreated ([3]; sensitive T47-D cells): 1.1 times higher
Fgfr2 expression, non-responders vs. control ([4]; Example 1): 55%
Fgfr2 expression, responder tumours vs. control ([4]; Example 1): 30%
Real-time regulation ZK-PRA NR versus vehicle control ([4]; Example 1): 0.55 (±0.30)
Real-time regulation ZK-PRA R versus vehicle control ([4]; Example 1): 0.30 (±0.07)
Real-time regulation ZK-PRA NR versus vehicle control ([4]; Example 2 confirmation): 0.25 (±0.20)
Real-time regulation ZK-PRA R versus vehicle control ([4]; Example 2 confirmation): 0.47 (±0.34)
average tumour weight ([5]; Example 1, treated group, end of test): 192 mg
average tumour weight of vehicle control group relative to treated group ([5]; Example 1, vehicle 427 mg): 2.2 times
average tumour weight ([5]; Example 2 confirmation experiment, treated group): 215 mg
average tumour weight of vehicle control group relative to treated group ([5]; Example 2 confirmation experiment, vehicle 577 mg): 2.7 times
growth (of maximum control) ([6]; FGF7 50 ng/ml): 114%
growth (of maximum control) ([6]; without FGF7): 114%
maximum growth inhibition ([6]; Fgf7 50 ng/ml in the culture medium, no dose-response relation): about 20%
inhibition at 10 µM ([6]; Homo sapiens, T47D, FGF7 50 ng/ml in the medium, read-out: growth inhibition): 24%
inhibition at 10 µM ([6]; Homo sapiens, T47D, without FGF7, maximum control (E2) = 100%, read-out: growth inhibition): 42%
inhibition at 1 µM ([6]; Homo sapiens, T47D, 10^−6 mol/l, without FGF7, read-out: growth inhibition): 47%
inhibition at 0.1 µM ([6]; Homo sapiens, T47D, 10^−7 mol/l, without FGF7, read-out: growth inhibition): 50%
growth inhibition ([6]; next lower concentration after 10^−5 mol/l, FGF7 50 ng/ml): 18%
activity in the proliferation assay ([6]; sensitive T47-D cells, without FGF7): good activity
Fgf7 expression in non-responder tumours relative to vehicle controls ([7]; Example 1): 3.12 times
Fgf7 expression in responder tumours compared with the controls ([7]; Example 1): 70%
Real-time regulation ZK-PRA NR versus vehicle control ([7]; Example 1): 3.12 (±0.68)
Real-time regulation ZK-PRA R versus vehicle control ([7]; Example 1): 0.69 (±0.38)
Real-time regulation ZK-PRA NR versus vehicle control ([7]; Example 2 confirmation): 3.25 (±1.91)
Real-time regulation ZK-PRA R versus vehicle control ([7]; Example 2 confirmation): 1.72 (±0.68)

CC/C(=C(\c1ccccc1)c1ccc(OCCN(C)C)cc1)c1ccccc1 [tamoxifen]
activity in proliferation tests [8]: no activity

B1: Fgf7: Fibroblast growth factor 7, secreted glycoprotein; recombinant Fgf7 added to culture medium (protein, UniProt P21781 32-194, looked up)
Fibroblast growth factor 7: CNDMTPEQMATNVNCSSPERHTRSYDYMEGGDIRVRRLFCRTQWYLRIDKRGKVKGTQEMKNNYNIMEIRTVAVGIVAIKGVESEFYLAMNKEGKLYAKKECNEDCNFKELILENHYNTYASAKWTHNGGEMFVALNQKGIPVRGKKTKKEQKTAHFLPMAIT
amount of PR (Western blot) [9]: distinct decrease in PR
